In the supplement of paper PMC11451515:

Key:
Conditions in all cases: 48 h
[1] = test system: SEM cells; assay: cell viability relative to DMSO control; higher = less cytotoxic
Procedure, shortened: (§1)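 Library compounds in DMSO were pin-dosed in an 11-point threefold series (47 μM to 0.79 nM) onto leukemia cells in 1536-well plates (5 μl). Plates held 500 cells/well of NOMO1 or SEM or 1000 cells/well of P12-Ichikawa, each adapted for at least four passages in each medium. Luminescence was read with CellTiter-Glo One after 48 h at 37°C. Viability means the per-plate percentage relative to DMSO wells, using cell-free wells as background.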

[2] = test system: NOMO1; assay: AUC of viability dose-response curve (% viability x log10 dose units); higher = less sensitive
Procedure, shortened: (§2)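 Leukemia cells adapted to each medium were seeded at 500 or 1000 cells/well in 1536-well plates and dosed with library compounds in DMSO at 11 threefold doses from 47 μM to 0.79 nM for 48 h at 37°C. CellTiter-Glo One luminescence was normalised per plate to DMSO and cell-free wells, then fitted with a four-parameter log-logistic model over log10 doses. Area under the curve was taken from this fit by the trapezoidal rule, with curves above full viability scaled and curves failing quality control removed.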

[3] = test system: P12-Ichikawa; assay: as above
Procedure, shortened: as §2

[4] = test system: SEM cells; assay: as above
Procedure, shortened: as §2

[5] = test system: NOMO1; assay: cell viability relative to DMSO control; higher = less cytotoxic
Procedure, shortened: as §1

[6] = test system: P12-Ichikawa; assay: as above
Procedure, shortened: as §1

CC(=O)O[C@H]1C[C@@H]2CC[C@@H]3[C@H](CC[C@@]4(C)[C@H]3C[C@H]([N+]3(C)CCCCC3)[C@@H]4OC(C)=O)[C@@]2(C)C[C@@H]1N1CCCCC1
[1], HPLM + 10% dialyzed FBS
Conditions	cell viability [%]
0.000781 µM	124
0.00234 µM	124
0.00702 µM	138
0.0211 µM	123
0.0632 µM	146
0.19 µM	144
0.569 µM	120
1.71 µM	137
5.12 µM	132
15.4 µM	125
46.1 µM	110

AUC of viability dose-response curve
Conditions	[2]	[3]	[4]
HPLM + 10% dialyzed FBS	454	464	470
RPMI 5 mM glucose + 10% FBS	438	466	465
RPMI 5 mM glucose + 10% dialyzed FBS	467	469	466

CC[C@@]1(O)C(=O)OC\C2=C1\C=C3/N(CC4=CC5=C(C=CC(=C5CN(C)C)O)N=C34)C2=O
[1], RPMI 5 mM glucose + 10% FBS
Conditions	cell viability [%]
0.000781 µM	101
0.00234 µM	107
0.00702 µM	87.2
0.0211 µM	107
0.0632 µM	68.6
0.19 µM	22.4
0.569 µM	11.5
1.71 µM	12.2
5.12 µM	6.44
15.4 µM	4.3
46.1 µM	4.41

AUC of viability dose-response curve
Conditions	[2]	[3]	[4]
HPLM + 10% dialyzed FBS	306	225	245
RPMI 5 mM glucose + 10% FBS	312	217	226
RPMI 5 mM glucose + 10% dialyzed FBS	324	215	230

CC1COC2(CCN(CC2)C/3=N/C(=O)C4=CC(=CC(=C4S3)[N+]([O-])=O)C(F)(F)F)O1 (stereo unspecified)
[1], HPLM + 10% dialyzed FBS
Conditions	cell viability [%]
0.000781 µM	97.9
0.00234 µM	105
0.00702 µM	122
0.0211 µM	109
0.0632 µM	93.9
0.19 µM	126
0.569 µM	133
1.71 µM	122
5.12 µM	117
15.4 µM	82.3
46.1 µM	78.3

AUC of viability dose-response curve
Conditions	[2]	[3]	[4]
HPLM + 10% dialyzed FBS	471	448	456
RPMI 5 mM glucose + 10% FBS	473	442	441
RPMI 5 mM glucose + 10% dialyzed FBS	467	434	446

CC(C)(Oc1ccc(C2CC2(Cl)Cl)cc1)C(=O)O (stereo unspecified)
cell viability [%], [1]
Conditions	HPLM + 10% dialyzed FBS	RPMI 5 mM glucose + 10% FBS
0.000781 µM	125	117
0.00234 µM	131	109
0.00702 µM	123	101
0.0211 µM	125	111
0.0632 µM	127	101
0.19 µM	128	110
0.569 µM	120	91.9
1.71 µM	122	119
5.12 µM	95.3	79.9
15.4 µM	110	106
46.1 µM	63.6	49

AUC of viability dose-response curve
Conditions	[2]	[3]	[4]
HPLM + 10% dialyzed FBS	457	453	444
RPMI 5 mM glucose + 10% FBS	454	447	464
RPMI 5 mM glucose + 10% dialyzed FBS	453	453	456

CN1CCN(c2ccc(C(=O)Nc3n[nH]c4ccc(Cc5cc(F)cc(F)c5)cc34)c(NC3CCOCC3)c2)CC1
AUC of viability dose-response curve
Conditions	HPLM + 10% dialyzed FBS	RPMI 5 mM glucose + 10% FBS	RPMI 5 mM glucose + 10% dialyzed FBS
[3]	440	440	404
[4]	341	352	354

CCC(=O)NCC[C@@H]1CCc2ccc3c(c21)CCO3
AUC of viability dose-response curve
Conditions	[2]	[3]	[4]
HPLM + 10% dialyzed FBS	444	444	430
RPMI 5 mM glucose + 10% FBS	446	455	431
RPMI 5 mM glucose + 10% dialyzed FBS	449	459	435

C[S+](=O)([O-])N1CCc2c(-c3cnc(N)nc3)nc(N3CCOCC3)nc21
cell viability [%]
Conditions	[1]	[5]	[6]
HPLM + 10% dialyzed FBS, 0.000781 µM	88.6	105	110
HPLM + 10% dialyzed FBS, 0.00234 µM	102	102	115
HPLM + 10% dialyzed FBS, 0.00702 µM	91.6	112	110
HPLM + 10% dialyzed FBS, 0.0211 µM	97.5	118	120
HPLM + 10% dialyzed FBS, 0.0632 µM	100	104	111
HPLM + 10% dialyzed FBS, 0.19 µM	96.3	107	119
HPLM + 10% dialyzed FBS, 0.569 µM	86	86.6	115
HPLM + 10% dialyzed FBS, 1.71 µM	63.4	76.4	93.6
HPLM + 10% dialyzed FBS, 5.12 µM	62.7	77.9	104
HPLM + 10% dialyzed FBS, 15.4 µM	43.5	76.2	107
HPLM + 10% dialyzed FBS, 46.1 µM	30.5	74.4	98.5
RPMI 5 mM glucose + 10% FBS, 0.000781 µM	68.5	107	105
RPMI 5 mM glucose + 10% FBS, 0.00234 µM	82.1	104	97.8
RPMI 5 mM glucose + 10% FBS, 0.00702 µM	70.4	99.3	114
RPMI 5 mM glucose + 10% FBS, 0.0211 µM	71.4	110	106
RPMI 5 mM glucose + 10% FBS, 0.0632 µM	75.3	102	102
RPMI 5 mM glucose + 10% FBS, 0.19 µM	66.3	99.5	108
RPMI 5 mM glucose + 10% FBS, 0.569 µM	61	101	103
RPMI 5 mM glucose + 10% FBS, 1.71 µM	50.5	88.9	73
RPMI 5 mM glucose + 10% FBS, 5.12 µM	38.9	95	84.8
RPMI 5 mM glucose + 10% FBS, 15.4 µM	22.2	81.9	79.6
RPMI 5 mM glucose + 10% FBS, 46.1 µM	18.3	74	71.8
RPMI 5 mM glucose + 10% dialyzed FBS, 0.000781 µM	88.7	99	98.2
RPMI 5 mM glucose + 10% dialyzed FBS, 0.00234 µM	105	103	116
RPMI 5 mM glucose + 10% dialyzed FBS, 0.00702 µM	113	99.6	110
RPMI 5 mM glucose + 10% dialyzed FBS, 0.0211 µM	104	97.7	119
RPMI 5 mM glucose + 10% dialyzed FBS, 0.0632 µM	92.9	93.6	112
RPMI 5 mM glucose + 10% dialyzed FBS, 0.19 µM	104	96.9	115
RPMI 5 mM glucose + 10% dialyzed FBS, 0.569 µM	98	77.3	107
RPMI 5 mM glucose + 10% dialyzed FBS, 1.71 µM	65.9	69.4	85.6
RPMI 5 mM glucose + 10% dialyzed FBS, 5.12 µM	55.3	73.7	103
RPMI 5 mM glucose + 10% dialyzed FBS, 15.4 µM	33.5	69.7	85.4
RPMI 5 mM glucose + 10% dialyzed FBS, 46.1 µM	22.2	56.8	78.5

AUC of viability dose-response curve
Conditions	HPLM + 10% dialyzed FBS	RPMI 5 mM glucose + 10% FBS	RPMI 5 mM glucose + 10% dialyzed FBS
[2]	418	442	404
[3]	457	431	440
